Experimental data reported in the supplement of paper PMC11150407.
± gives the standard deviation of the averaged measurements.

Tests used:
Test in all cases: cell viability relative to vehicle (fraction); higher = less inhibition
Conditions in all cases: 72 h
[1] = tested on: PR#0023
Protocol: (§1)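 Primary 3q26 AML patient cells were treated for 72 h with AR-42, belinostat or entinostat (0.01-2 uM, 2-fold dilutions), in duplicate. Viability was measured by ATP-based luminescence and normalised to vehicle, given as a fraction.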

[2] = tested on: PR#008
Protocol: as §1

[3] = tested on: PR#003
Protocol: as §1

[4] = tested on: PR#006
Protocol: as §1

[5] = tested on: PR#0024
Protocol: as §1

[6] = tested on: PR#004
Protocol: as §1

[7] = tested on: PR#007
Protocol: as §1

[8] = tested on: PR#002
Protocol: as §1

[9] = tested on: PR#005
Protocol: as §1

Nc1ccccc1NC(=O)c1ccc(CNC(=O)OCc2cccnc2)cc1 [Entinostat]
cell viability
Conditions | [1] | [2] | [3] | [4] | [5] | [6] | [7] | [8] | [9]
0.016 µM | 0.932 ± 0.053 | 0.764 ± 0.033 | 0.949 ± 0.045 | 0.961 ± 0.19 | 1.08 ± 0.19 | 0.78 ± 0.048 | 0.934 ± 0.034 | 1.02 ± 0.23 | 1.04 ± 0.43
0.031 µM | 0.923 ± 0.025 | 0.691 ± 0.045 | 1 ± 0.2 | 0.813 ± 0.077 | 1.02 ± 0.15 | 0.673 ± 0.033 | 0.903 ± 0.027 | 0.94 ± 0.23 | 0.625 ± 0.034
0.0625 µM | 0.806 ± 0.019 | 0.49 ± 0.092 | 0.91 ± 0.12 | 0.731 ± 0.026 | 0.924 ± 0.045 | 0.472 ± 0.04 | 0.938 ± 0.037 | 0.869 ± 0.2 | 0.534 ± 0.033
0.125 µM | 0.7626 ± 0.002 | 0.303 ± 0.0084 | 0.735 ± 0.024 | 0.555 ± 0.054 | 0.827 ± 0.051 | 0.298 ± 0.0035 | 0.918 ± 0.019 | 0.736 ± 0.13 | 0.437 ± 0.019
0.25 µM | 0.6886 ± 0.0064 | 0.186 ± 0.029 | 0.536 ± 0.013 | 0.434 ± 0.076 | 0.682 ± 0.041 | 0.183 ± 0.033 | 0.778 ± 0.016 | 0.593 ± 0.013 | 0.475 ± 0.22
0.5 µM | 0.589 ± 0.034 | 0.0771 ± 0.0027 | 0.281 ± 0.052 | 0.2018 ± 0.00028 | 0.516 ± 0.017 | 0.1099 ± 0.00028 | 0.666 ± 0.048 | 0.396 ± 0.055 | 0.203 ± 0.043
1 µM | 0.423 ± 0.041 | 0.0229 ± 0.0033 | 0.115 ± 0.018 | 0.115 ± 0.017 | 0.285 ± 0.017 | 0.0717 ± 0.01 | 0.345 ± 0.0048 | 0.0907 ± 0.026 | 0.06904 ± 0.00018
2 µM | 0.183 ± 0.029 | 0.00956 ± 0.0026 | 0.0591 ± 0.0028 | 0.065 ± 0.0079 | 0.14 ± 0.0072 | 0.0662 | 0.168 ± 0.0027 | 0.0309 ± 0.00074 | 0.0415 ± 0.0016

CC(C)[C@H](C(=O)Nc1ccc(C(=O)NO)cc1)c1ccccc1 [AR-42]
cell viability
Conditions | [1] | [2] | [3] | [4] | [5] | [6] | [7] | [8] | [9]
0.016 µM | 0.955 ± 0.074 | 0.553 ± 0.13 | 1.01 ± 0.037 | 0.936 ± 0.11 | 0.953 ± 0.032 | 0.809 ± 0.13 | 0.988 ± 0.034 | 1 ± 0.1 | 0.962 ± 0.41
0.031 µM | 0.984 ± 0.082 | 0.434 ± 0.019 | 0.853 ± 0.069 | 0.904 ± 0.038 | 0.81 ± 0.024 | 0.646 ± 0.061 | 1.0115 ± 0.00017 | 0.938 ± 0.15 | 0.977 ± 0.38
0.0625 µM | 0.675 ± 0.17 | 0.3 ± 0.019 | 0.797 ± 0.07 | 0.902 ± 0.042 | 0.67 ± 0.041 | 0.417 ± 0.02 | 1.01 ± 0.033 | 0.855 ± 0.12 | 0.833 ± 0.34
0.125 µM | 0.785 ± 0.082 | 0.199 ± 0.022 | 0.503 ± 0.013 | 0.552 ± 0.032 | 0.4575 ± 0.0044 | 0.248 ± 0.004 | 0.872 ± 0.051 | 0.792 ± 0.025 | 0.991 ± 0.28
0.25 µM | 0.441 ± 0.27 | 0.0865 ± 0.0096 | 0.247 ± 0.021 | 0.367 ± 0.041 | 0.259 ± 0.02 | 0.132 ± 0.0094 | 0.748 ± 0.031 | 0.508 ± 0.034 | 0.928 ± 0.056
0.5 µM | 0.4779 ± 0.0025 | 0.0168 ± 0.00084 | 0.0952 ± 0.013 | 0.104 ± 0.016 | 0.127 ± 0.0071 | 0.0759 ± 0.001 | 0.443 ± 0.0055 | 0.124 ± 0.0084 | 0.239 ± 0.01
1 µM | 0.116 ± 0.0047 | 0.0142 ± 0.00051 | 0.0399 ± 0.0043 | 0.0486 ± 0.0015 | 0.0553 ± 0.0038 | 0.0688 ± 0.0021 | 0.155 ± 0.0046 | 0.0233 ± 0.00057 | 0.0777 ± 0.009
2 µM | 0.0583 ± 0.0041 | 0.016 ± 0.00068 | 0.0313 ± 0.0015 | 0.0395 ± 0.0067 | 0.0347 ± 0.00063 | 0.0591 ± 0.0037 | 0.0706 ± 0.002 | 0.01971 ± 9.6e-05 | 0.0322 ± 0.0007

O=C(/C=C/c1cccc(S(=O)(=O)Nc2ccccc2)c1)NO [Belinostat]
cell viability
Conditions | [1] | [2] | [3] | [4] | [5] | [6] | [7] | [8] | [9]
0.016 µM | 0.933 ± 0.01 | 0.643 ± 0.032 | 1.12 ± 0.035 | 1.048 ± 0.0093 | 0.97 ± 0.059 | 0.978 ± 0.14 | 0.981 ± 0.018 | 1.22 ± 0.37 | 0.798 ± 0.076
0.031 µM | 0.917 ± 0.043 | 0.642 ± 0.051 | 1.12 ± 0.04 | 0.987 ± 0.09 | 0.882 ± 0.066 | 0.967 ± 0.043 | 0.961 ± 0.012 | 1.08 ± 0.21 | 0.698 ± 0.033
0.0625 µM | 0.893 ± 0.02 | 0.468 ± 0.0074 | 0.9713 ± 0.0041 | 0.941 ± 0.014 | 0.77 ± 0.027 | 0.7834 ± 0.0059 | 0.897 ± 0.027 | 1.01 ± 0.2 | 0.979 ± 0.49
0.125 µM | 0.8339 ± 0.00086 | 0.391 ± 0.016 | 0.874 ± 0.043 | 0.729 ± 0.032 | 0.609 ± 0.014 | 0.577 ± 0.021 | 0.854 ± 0.02 | 1.01 ± 0.087 | 0.871 ± 0.34
0.25 µM | 0.777 ± 0.011 | 0.247 ± 0.069 | 0.562 ± 0.055 | 0.481 ± 0.042 | 0.363 ± 0.013 | 0.326 ± 0.023 | 0.717 ± 0.084 | 0.902 ± 0.072 | 0.524 ± 0.082
0.5 µM | 0.611 ± 0.02 | 0.0828 ± 0.00094 | 0.3 ± 0.019 | 0.177 ± 0.016 | 0.184 ± 0.013 | 0.125 ± 0.007 | 0.4339 ± 0.0043 | 0.492 ± 0.012 | 0.404 ± 0.067
1 µM | 0.325 ± 0.017 | 0.0197 ± 0.00079 | 0.0978 ± 0.0068 | 0.0585 ± 0.0093 | 0.0781 ± 0.0048 | 0.0685 ± 0.006 | 0.173 ± 0.028 | 0.114 ± 0.003 | 0.108 ± 0.031
2 µM | 0.0655 ± 0.0071 | 0.0115 ± 0.002 | 0.0452 ± 0.0024 | 0.035 ± 0.0027 | 0.0477 ± 0.0022 | 0.0602 ± 0.0023 | 0.0759 ± 0.0039 | 0.0243 ± 0.0013 | 0.0361 ± 0.001
